Source: patent publication US12612389B2, “Benzofuran-based N-acylhydrazone derivative and pharmaceutical composition comprising same” (KOREA RESEARCH INSTITUTE OF BIOSCIENCE AND BIOTECHNOLOGY, priority 2019, dated 2026)
Read-outs that look alike come from different tables or passages of the source.

How the values were obtained:
HeLa cells = assay: Anti-proliferative activity test in HeLa cell line (MTT); assay type: cell-based; details: Homo sapiens, 48 h, grown for 2 days, mean of 2
Experimental: HeLa cells (American Type Culture Collection: ATCC, USA), a human cervical cancer cell line, were seeded in a 96-well plate at 3×10^3 cells/well, and the cells were then treated with compounds of Examples or Comparative Example according to the present invention and grown for 2 days. Then, MTT (3-(4,5-dimethylthiazol-2-yl)-2,5-diphenyltetrazolium bromide) reagent was added at 10 μL/well. After 2 hours, absorbance was measured at “OD 450” and statistical values were obtained using Prism™6 program. The data shown in Table below are mean values of results obtained by repeating the analysis twice.

HeLa CCL2 tumor = assay: Anticancer effect test in human cervical cancer cell (HeLa CCL2) transplantation model; assay type: in vivo, BALB/C female nude mouse; details: 25 mg/kg intraperitoneally, p<0.001
Experimental: After thawing the human […] cancer cell line HeLa CCL2 that was stored frozen in liquid nitrogen, cell culture was performed. The cells were cultured for an appropriate period in a CO2 incubator (Forma, USA) at a temperature of 37° C. and a CO2 concentration of 5%.
On the last day of culture, all cancer cells were collected and counted, and the cell concentration was adjusted to 1×10^7 cells/mL using serum free media. The cell culture solution as adjusted above was injected subcutaneously into the axillary region between the shoulder blade and the chest wall in an amount of 0.3 mL (3×10^6 cells/mouse) per BALB/C female nude mouse (5 weeks old, Nara Biotech).
Immediately prior to administration, the compounds were dissolved in a mixture of DMAC (dimethylacetamide) 20%+Tween80 5%+20% HPbCD (2-hydroxypropyl-β-cyclodextrin) 75% at an appropriate concentration and used. The prepared substances were repeatedly administered intraperitoneally in an amount of 0.2 mL (10 mL/kg) per 20 g of a mouse according to the following administration schedule. • carrier, the compound of Example 4, the compound of Example 8, and the compound of Example 15 (25 mg/kg), 0-28 days 4.3. Confirmation of Change in Tumor Size
After cancer cell transplantation, the tumor size of each animal subject was measured a total of 11 times in 3 directions using a vernier caliper from when the mean tumor size reached 57.0 mm^3 until Day 28, and calculated by the formula of length×width×height/2.
In order to test the degree of toxicity upon repeated intraperitoneal administration of the Example compound to HeLa CCL2 cancer cell transplantation nude mice, general symptoms and body weight changes of the animal subjects were observed during the administration period.
On Day 28 after drug administration, blood was collected from the mouse ophthalmic veins in 2 hours post the last administration, and the mice were killed using CO2 gas. Images of the mice were taken, and the tumor was separated and weighed on an electronic scale. After taking the images, each tumor was divided in half and fixed in liquid nitrogen and formalin, respectively. On […] after drug administration, the HeLa CCL2 tumor was excised and weighed.

Stability test in plasma [1] = assay type: in vitro ADME; set-up: Residue % (180 minutes elapsed), Mean: dose or concentration left out as unconfirmed; details: 37° C.
Experimental: In order to test the stability (in vivo) of the Example compounds according to the present invention, the compounds of Examples 2, 3, 4, 8 and 15 were administered intravenously, and plasma concentrations over time were observed. In addition, procaine was used as a positive control. Plasma stability was measured three times by administering the test compound at a concentration […] to human, rat, or mouse plasma (90 μL) at 37° C. Results thereof are shown in Table below and FIGS. 3A to 3E.

Stability test in plasma [2] = assay type: in vitro ADME; details: Rat plasma, 37° C.
Experimental: In order to test the stability (in vivo) of the Example compounds according to the present invention, the compounds of Examples 2, 3, 4, 8 and 15 were administered intravenously, and plasma concentrations over time were observed. In addition, procaine was used as a positive control. Plasma stability was measured three times by administering the test compound at a concentration of 5 mM to human, rat, or mouse plasma (90 μL) at 37° C. Results thereof are shown in Table below and FIGS. 3A to 3E.

[3] = Metabolic stability test in liver microsomes; assay type: in vitro ADME; details: 0.5 mg protein/mL, 37° C.
Experimental: (§1) The test compounds at a concentration of […] were administered in the presence or absence of NADPH (1 mM) to liver […] (0.5 mg protein/mL) of humans, rats and mice, and metabolic stability was tested at 37° C. for 30 minutes. In addition, buspirone was used as a positive control. Results thereof are shown in Table below and FIGS. 4A to 4E.

[4] = Stability in buffer (line of the metabolic stability test); assay type: in vitro ADME
Experimental: as §1

[5] = Solubility test in administration solvent; assay type: physicochemical; details: 2.0 mg/mL; Solvent A 20%, Solvent B 20%, Solvent C 60% (dimethylacetamide/Cremophor EL/20% HPbCD)
Experimental: The test substances were accurately weighed and placed in a glass vial. Then, solvent A was added in an amount corresponding to 20% of the desired final solution volume, and the mixture was completely dissolved by treatment with a vortexer and sonication. Next, solvent B in an amount corresponding to 10% or 20% of the final solution volume was added and mixed well. […] Finally, the mixture was subjected to sonication for 30 seconds. The mixed solution was prepared and used immediately before administration in the experiment. • Solvent A: Dimethylacetamide produced by SigmaAldrich • Solvent B: Cremophor EL produced by SigmaAldrich • Solvent C: 20% HPbCD ((2-Hydroxypropyl)-β-cyclodextrin produced by SigmaAldrich) in deionized water

[6] = Pharmacokinetic (PK) test; assay type: in vivo, male ICR mice; details: for Vd: iv; for AUC(0-t): read-out: AUClast, Mean
Experimental: Pharmacokinetic (PK) parameters of the Example compounds according to the present invention were determined using male ICR mice as follows (n=3).
Pharmacokinetic (PK) parameters were measured by non-compartmental analysis of plasma concentration-time curves using Kinetica™ 4.4.1 (Thermo Fisher Scientific, USA). Results thereof are shown in Table below and FIGS. 5A to 5C. In Table below, “F” parameter was calculated using AUClast, “N/A” indicates the phrase not applicable, and “NC” indicates the phrase not calculated.

[7] = male, ICR, mouse, plasma, Oral administration, 20 mg/kg, mice, n=3

Compound: CCOCCn1c(Cl)c(/C=N/NC(=O)c2cc3cc(OC)ccc3o2)c2cc(OC)ccc21 [Example 15, (E)-N′-[(2-chloro-1-(2-ethoxyethyl)-5-methoxy-1H-indol-3-yl]methylene}-5-methoxybenzofuran-2-carbohydrazide]
- IC50 (HeLa cells): 123 nM
- tumor growth inhibition (HeLa CCL2 tumor; 0-28 days, Day 28, tumor size): 40.13%
- reduction in tumor weight compared with solvent control (HeLa CCL2 tumor; excised tumor): 26.2%
- Residue % (180 minutes elapsed), Mean (Stability test in plasma [1]; Human plasma): 4.20%
- half-life at 5 mM (Stability test in plasma [1]; Human plasma): 160 min
- Residue % (180 minutes elapsed), Mean (Stability test in plasma [1]; Mouse plasma): 57.25%
- half-life at 5 mM (Stability test in plasma [1]; Mouse plasma): > 180 min
- half-life at 5 mM (Stability test in plasma [2]): 134 min
- Residue % (180 minutes elapsed), Mean (Stability test in plasma [2]; 5 mM): 41.74%
- Residue (%) after culturing for 30 min ([3]; Human, +NADPH): 7.94 ± 0.74%
- Residue (%) after culturing for 30 min ([3]; Human, −NADPH): 88.63 ± 1.61%
- Residue (%) after culturing for 30 min ([3]; Mouse, +NADPH): 4.82 ± 0.52%
- Residue (%) after culturing for 30 min ([3]; Mouse, −NADPH): 86.31 ± 1.72%
- Residue (%) after culturing for 30 min ([3]; Rat, +NADPH): 3.47 ± 0.25%
- Residue (%) after culturing for 30 min ([3]; Rat, −NADPH): 94.95 ± 1.93%
- Residue (%) after culturing for 30 min [4]: 91.02 ± 2.89%
- Solubility evaluation result [5]: Soluble
- F, Mean ([6]; Oral 20 mg/kg vs intravenous 5 mg/kg, calculated using AUClast): 0.3%
- Vd ([6]; male, ICR, mouse, plasma, 5 mg/kg, Intravenous administration, 5 mg/kg, mice, n=3, read-out: Vss, Mean): 0.71 L/kg
- Vd ([6]; male, ICR, mouse, plasma, 5 mg/kg, Intravenous administration, 5 mg/kg, mice, n=3, read-out: Vz, Mean): 1.37 L/kg
- AUC(0-inf) ([6]; male, ICR, mouse, plasma, Intravenous administration, 5 mg/kg, mice, n=3, read-out: AUCinf, Mean): 1730 ng·h/mL
- AUC(0-t) ([6]; male, ICR, mouse, plasma, Intravenous administration, 5 mg/kg, mice, n=3): 1720 ng·h/mL
- clearance ([6]; male, ICR, mouse, plasma, Intravenous administration, 5 mg/kg, mice, n=3, read-out: CL, Mean (converted)): 48.2 mL/min/kg
- MRT inf ([6]; male, ICR, mouse, plasma, Intravenous administration, 5 mg/kg, mice, n=3, read-out: MRTinf, Mean): 14.4 min
- half-life ([6]; male, ICR, mouse, plasma, Intravenous administration, 5 mg/kg, mice, n=3, read-out: t1/2, Mean (converted)): 19.8 min
- Cmax [6, 7]: 34.4 ng/mL
- Tmax [6, 7]: 15 min
- AUC(0-t) [6, 7]: 18 ng·h/mL
